# Laboratory results reported in PMC10252614 (International Journal of Molecular Sciences, 2023).
# Experiments:
# [1] = in vitro; conditions: human, undifferentiated SH-SY5Y cells
# [2] = biological target: T1, hMAO-B (Homo sapiens, UniProt P27338); test: in vitro inhibition of hMAO-B, kynuramine fluorescence assay; format: biochemical
# T1 construct: purchased Merck (Prague, Czech Republic)
# T1 sequence (P27338 1-520): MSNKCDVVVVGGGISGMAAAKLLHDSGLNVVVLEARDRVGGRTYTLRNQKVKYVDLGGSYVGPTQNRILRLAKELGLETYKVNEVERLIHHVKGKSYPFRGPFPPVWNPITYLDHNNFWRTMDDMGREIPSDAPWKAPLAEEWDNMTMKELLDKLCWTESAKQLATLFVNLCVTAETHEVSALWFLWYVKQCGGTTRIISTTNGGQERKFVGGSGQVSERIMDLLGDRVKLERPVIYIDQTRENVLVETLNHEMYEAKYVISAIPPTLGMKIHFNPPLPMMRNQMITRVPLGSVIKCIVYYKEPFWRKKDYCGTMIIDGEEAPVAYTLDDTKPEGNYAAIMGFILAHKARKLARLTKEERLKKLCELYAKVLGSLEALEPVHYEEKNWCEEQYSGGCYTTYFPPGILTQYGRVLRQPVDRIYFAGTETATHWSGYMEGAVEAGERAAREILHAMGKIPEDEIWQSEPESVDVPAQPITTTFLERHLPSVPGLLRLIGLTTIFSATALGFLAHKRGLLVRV
# Experimental: The hMAO-A and hMAO-B enzymes were purchased from Merck (Prague, Czech Republic). […] The mixture was pre-incubated at 37 °C for 15 min and subsequently substrate kynuramine was added to the final concentration of 100 µM. The final volume of reaction mixture was 0.1 mL. The whole reaction mixture was incubated at 37 °C for 30 min. The reaction was stopped by the addition of 20 µL 4M NaOH.
# [3] = system: SH-SY5Y cells; test: dehydrogenase activity, WST-1 test; format: cell-based, human; conditions: 100 µM, mean ± SD
# Experimental: Next, we tested the effects of the compounds on intracellular dehydrogenase activity and glutathione levels. […] To evaluate the effects of the compounds on cells, we measured total intracellular dehydrogenase activity as a marker of cellular viability and glutathione levels for evaluation of oxidative stress (Table 6).
# Dehydrogenase activity was evaluated by WST-1 test (Roche, Munich, Germany). The WST-1 test measures the activity of intra- and extra-mitochondrial dehydrogenases. […] The change of absorbance was measured by spectrophotometer at the wavelength of 440 nm using SPARK microplate reader (Tecan, Austria) while incubated at 37 °C. The dehydrogenase activity was expressed as the percentage of total cellular dehydrogenase activity relative to that in the control cells (control = 100%).
# [4] = system: differentiated SH-SY5Y cells; test: MTT viability of differentiated SH-SY5Y; format: cell-based, human; conditions: concentration equal to IC50 from undifferentiated model, 24 h
# Experimental: Then, the differentiated SH-SY5Y cells were treated with concentrations corresponding to the IC50 values obtained from the cytotoxicity measurement using undifferentiated SH-SY5Y cells. Cells were exposed to a tested compound for 24 h. Then, the medium was replaced by a medium containing 10 μM of MTT and cells were allowed to produce formazan for another, approximately 3 h under surveillance. Thereafter, the medium was aspirated and purple crystals of MTT formazan were dissolved in 100 μL DMSO under shaking. Cell viability was assessed spectrophotometrically by the amount of formazan produced. Absorbance was measured at 570 nm with 650 nm reference wavelength on Spark (Tecan Group Ltd., Männedorf, Switzerland). The IC50 value was then calculated from the control-subtracted triplicates using non-linear regression (four parameters) of GraphPad Prism 9 software. Final IC50 and SEM values were obtained as a mean of three.
# [5] = biological target: T2, human AChE (hAChE) (Homo sapiens, UniProt P22303); test: hAChE inhibition, modified Ellman's method; format: biochemical; conditions: read-out: % of AChE inhibition
# T2 construct: made in house
# Experimental: (§1) N-Methylpropargylamine-quinazolines were tested for their inhibitory potency against human AChE (hAChE) and human BChE (hBChE) enzymes using the modified spectrophotometric method of Ellman et al..
# (§2) The human recombinant BChE and AChE were prepared at the Department of Toxicology and Military Pharmacy (Faculty of Military Health Sciences, Hradec Kralove, Czech Republic). 5,5′-dithiobis(2-nitrobenzoic acid) (Ellman’s reagent, DTNB), phosphate buffer (PB, pH 7.4), acetylthiocholine (ATC) and butyrylthiocholine (BTC), were purchased from Sigma-Aldrich, Prague, Czech Republic. For measuring purposes, polystyrene Nunc 96-well microplates with a flat-bottom shape (ThermoFisher Scientific, Waltham, MA, USA) were utilized. All the assays were carried out in 0.1 M KH2PO4/K2HPO4 buffer, pH 7.4. Enzyme solutions were prepared at 2.0 units/mL in 2 mL aliquots. The assay medium consisted of a 0.1 M phosphate buffer (pH 7.4), 0.01 M DTNB, the enzyme, and 0.01 M substrate (ATC/BTC iodide solution). Concentration 1 µM was tested and the % of inhibition was calculated. Tested compounds were pre-incubated for 5 min. The reaction was started by immediate addition of 20 μL of the substrate. […] Each concentration was assayed in triplicate. Software GraphPad Prism 5 (San Diego, CA, USA) was used for the statistical data evaluation.
# [6] = biological target: T3, human BChE (hBChE) (Homo sapiens, UniProt P06276); test: hBChE inhibition, modified Ellman's method; format: biochemical; conditions: 10^-6 M
# T3 construct: made in house
# Experimental: as §1, §2
# [7] = PAMPA prediction of BBB permeability; format: in vitro ADME
# Experimental: The assay validation was performed using standard compounds whose CNS status is experimentally known from in vivo conditions.
# PAMPA (the parallel artificial membrane-permeability assay) is a high-throughput screening tool applicable for prediction of the passive transport of potential drugs across the blood–brain barrier (BBB). In this study, it was used as a non-cell-based in vitro assay carried out in a coated 96-well membrane filter. The filter membrane of the donor plate was coated with PBL (Polar Brain Lipid, Avanti, USA) in dodecane (4 µL of 20 mg/mL PBL in dodecane) and the acceptor well was filled with 300 µL of PBS (pH 7.4; VA). The tested compounds were dissolved first in DMSO and subsequently diluted with PBS (pH 7.4) to final concentrations of 50–100 μM in the donor wells. […] About 300 µL of the donor solution was added to the donor wells (VD) and the donor filter plate was carefully put on the acceptor plate so that the coated membrane was “in touch” with both the donor solution and acceptor buffer. In principle, the test compound diffused from the donor well through the lipid membrane (Area = 0.28 cm^2) to the acceptor well. The concentration of the drug in both the donor and acceptor wells were assessed after 3, 4, 5, and 6 h of incubation in quadruplicate using the UV plate reader Spark (Tecan Group Ltd., Männedorf, Switzerland) at the maximum absorption wavelength of each compound. In addition, the solution of the theoretical compound concentration, simulating the equilibrium state established if the membrane were ideally permeable, was prepared and assessed as well.
# [8] = biological target: T4, GluN1/GluN2B receptor (Homo sapiens, UniProt Q05586+Q13224); test: whole-cell patch-clamp on HEK293 cells expressing GluN1/GluN2B NMDAR; format: cell-based; conditions: HEK293, 10 µM, −60 mV, ± SEM (n = 5–6), 100% = full inhibition; read-out: Relative inhibition (RI) of GluN1/GluN2B NMDAR
# T4 construct: expressed in transfected cells; host or cells: HEK293
# Experimental: We tested the derivatives by the whole-cell patch-clamp method at a concentration of 10 μM under steady-state conditions in the presence of the saturating concentrations of NMDAR (co-)agonists (L-glutamate and glycine). […] Whole-cell patch-clamp recordings were performed using an Axopatch 200B amplifier (Molecular Devices, LLC., San Jose, CA, USA) at a holding membrane potential of −60 mV. HEK293 cells were co-transfected with DNA vectors encoding human versions of the GluN1-4a (GluN1) and GluN2B subunits and green fluorescent protein (GFP) in a 1:1:1 ratio using 0.9 μL PolyMag reagent (OZ Biosciences SAS, Marseille, France) in 50 μL Opti-MEM I [56, 57]. After 15 min on a magnetic plate, HEK293 cells were trypsinized and resuspended in Opti-MEM I medium containing 1% FBS, 2 mM MgCl2 and 3 mM kynurenic acid (to reduce cell death caused by activation of NMDARs). Electrophysiological measurements were performed 24–48 h after completion of transfection at room temperature. The extracellular recording solution (ECS) contained (in mM): 160 NaCl, 2.5 KCl, 10 HEPES, 10 D-glucose, 0.2 EDTA, and 0.7 CaCl2 (pH 7.3 with NaOH). […] A microprocessor-controlled rapid perfusion system with a time constant for solution exchange around the recorded cell of ~20 ms was used. Currents were low-pass filtered at 2 kHz using an eight-pole Bessel filter, digitized at 5 kHz, and recorded using the pCLAMP 10 program (Molecular Devices, LLC., San Jose, CA, USA). The co-agonist glycine (100 µM) was applied throughout the recording, and the agonist L-glutamate (1 mM) was used to elicit responses of GluN1/GluN2B receptors.
# T3 sequence (P06276 29-602): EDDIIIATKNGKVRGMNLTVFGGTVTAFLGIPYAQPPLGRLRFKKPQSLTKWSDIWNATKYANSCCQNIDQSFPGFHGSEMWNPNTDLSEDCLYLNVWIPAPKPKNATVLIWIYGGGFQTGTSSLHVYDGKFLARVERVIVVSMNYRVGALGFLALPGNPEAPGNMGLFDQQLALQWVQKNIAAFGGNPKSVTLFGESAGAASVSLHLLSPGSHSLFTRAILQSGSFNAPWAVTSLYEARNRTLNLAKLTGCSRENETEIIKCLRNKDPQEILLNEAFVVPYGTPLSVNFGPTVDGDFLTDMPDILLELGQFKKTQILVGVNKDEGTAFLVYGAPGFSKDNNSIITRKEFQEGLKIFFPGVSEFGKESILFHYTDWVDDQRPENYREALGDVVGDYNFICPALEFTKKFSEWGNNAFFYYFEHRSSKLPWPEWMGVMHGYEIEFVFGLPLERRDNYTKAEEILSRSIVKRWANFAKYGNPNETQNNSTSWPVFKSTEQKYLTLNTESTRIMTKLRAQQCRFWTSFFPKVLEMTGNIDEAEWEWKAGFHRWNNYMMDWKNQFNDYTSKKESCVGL
# T4 sequence (Q13224 27-1484, other chains not shown): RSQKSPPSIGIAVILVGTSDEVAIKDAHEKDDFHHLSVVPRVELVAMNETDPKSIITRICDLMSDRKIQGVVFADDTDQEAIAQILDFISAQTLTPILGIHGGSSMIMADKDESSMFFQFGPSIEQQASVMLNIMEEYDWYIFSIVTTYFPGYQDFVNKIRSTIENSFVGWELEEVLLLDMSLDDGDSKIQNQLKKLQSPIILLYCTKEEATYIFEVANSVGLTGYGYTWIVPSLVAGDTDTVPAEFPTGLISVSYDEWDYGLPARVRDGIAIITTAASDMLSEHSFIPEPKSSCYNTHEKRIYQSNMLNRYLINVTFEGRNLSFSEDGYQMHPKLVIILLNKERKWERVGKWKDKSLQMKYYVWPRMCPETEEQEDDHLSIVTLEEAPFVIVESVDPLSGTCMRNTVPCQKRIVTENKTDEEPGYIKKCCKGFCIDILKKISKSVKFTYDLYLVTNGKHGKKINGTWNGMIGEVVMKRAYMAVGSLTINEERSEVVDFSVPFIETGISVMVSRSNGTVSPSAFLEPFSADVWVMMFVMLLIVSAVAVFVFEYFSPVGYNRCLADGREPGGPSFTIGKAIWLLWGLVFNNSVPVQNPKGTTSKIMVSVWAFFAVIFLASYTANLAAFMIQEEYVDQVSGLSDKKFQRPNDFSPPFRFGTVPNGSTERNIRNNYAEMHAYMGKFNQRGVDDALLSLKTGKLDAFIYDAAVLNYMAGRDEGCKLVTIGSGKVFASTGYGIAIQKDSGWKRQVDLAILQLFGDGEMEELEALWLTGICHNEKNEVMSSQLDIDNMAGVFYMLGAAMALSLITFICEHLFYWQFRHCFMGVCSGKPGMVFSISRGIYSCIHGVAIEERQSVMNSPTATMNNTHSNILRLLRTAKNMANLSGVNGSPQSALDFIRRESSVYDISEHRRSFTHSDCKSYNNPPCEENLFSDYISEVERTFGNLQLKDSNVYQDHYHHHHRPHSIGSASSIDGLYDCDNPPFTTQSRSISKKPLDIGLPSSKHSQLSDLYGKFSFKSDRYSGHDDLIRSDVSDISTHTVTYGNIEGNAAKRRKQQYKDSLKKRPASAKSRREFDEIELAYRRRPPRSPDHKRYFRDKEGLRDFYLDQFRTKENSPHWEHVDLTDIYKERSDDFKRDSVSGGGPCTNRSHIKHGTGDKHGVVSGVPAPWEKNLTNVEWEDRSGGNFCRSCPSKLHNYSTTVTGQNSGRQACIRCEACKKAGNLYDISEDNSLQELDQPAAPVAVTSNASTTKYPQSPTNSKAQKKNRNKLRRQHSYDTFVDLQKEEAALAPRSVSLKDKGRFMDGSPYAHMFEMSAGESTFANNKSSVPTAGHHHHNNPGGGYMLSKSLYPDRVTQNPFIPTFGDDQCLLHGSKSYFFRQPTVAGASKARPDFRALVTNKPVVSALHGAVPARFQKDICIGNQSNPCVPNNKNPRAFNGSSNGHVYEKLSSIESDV
# T2 sequence (P22303 32-614): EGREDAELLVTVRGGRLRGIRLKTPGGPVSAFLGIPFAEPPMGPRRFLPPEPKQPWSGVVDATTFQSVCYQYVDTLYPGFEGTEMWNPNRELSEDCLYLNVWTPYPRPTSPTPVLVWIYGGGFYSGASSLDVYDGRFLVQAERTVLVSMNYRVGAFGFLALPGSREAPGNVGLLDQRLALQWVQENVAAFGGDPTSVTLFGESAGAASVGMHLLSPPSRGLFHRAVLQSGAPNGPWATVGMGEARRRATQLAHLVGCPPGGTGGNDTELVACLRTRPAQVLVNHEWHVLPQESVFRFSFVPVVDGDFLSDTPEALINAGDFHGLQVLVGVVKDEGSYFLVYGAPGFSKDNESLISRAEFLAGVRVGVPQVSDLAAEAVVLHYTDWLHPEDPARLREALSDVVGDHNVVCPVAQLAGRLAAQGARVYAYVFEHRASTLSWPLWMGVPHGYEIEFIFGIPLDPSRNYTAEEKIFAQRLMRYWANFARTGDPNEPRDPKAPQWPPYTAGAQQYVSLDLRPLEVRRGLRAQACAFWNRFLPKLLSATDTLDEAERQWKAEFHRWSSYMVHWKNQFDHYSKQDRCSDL
smiles,measurement,setting,value
"C#CCN(C)c1nc(NCCCC)c2ccc(Cl)cc2n1 [II-6e, N4-butyl-7-chloro-N2-methyl-N2-(prop-2-yn-1-yl)quinazoline-2,4-diamine]",IC50 at 24 h,[1],67.1 ± 3.81 µM
same,IC50,[2],3.65 ± 0.14 µM
same,selectivity profile hMAO-A vs hMAO-B (in words),[2],hMAO-B selective inhibitors
same,Dehydrogenase Activity (% of Control),[3]; 6 h,63 ± 9 % of Control
same,Dehydrogenase Activity (% of Control),[3]; 24 h,48 ± 9 % of Control
same,effect on viability of differentiated SH-SY5Y (in words),[4],increased toxicity
same,inhibition at 1 µM,[5],9%
same,inhibition at 1 µM,[6],0%
same,BBB penetration by PAMPA (in words),[7],did not penetrate the artificial barrier
same,CNS (+/−),[7]; PAMPA class,CNS (−) (CNS (−) (low BBB permeation predicted): Pe (×10^−6 cm s^−1) < 2.0)
same,Papp,"[7]; PAMPA, PBS pH 7.4, read-out: Pe ± SEM",0.9 ± 0.43 ×10⁻⁶ cm/s
same,inhibition at 10 µM,[8],33.8 ± 2.56%
